# In ChEMBL document CHEMBL3885881, “DrugMatrix”:
# Species on record: Rattus norvegicus
# Type: toxicity, organism-based, Sprague-Dawley
# Conditions: in vivo, ip, route intraperitoneal, vehicle 100 % SALINE; for ABSOLUTE EOSINOPHIL / ABSOLUTE LYMPHOCYTE / ABSOLUTE MONOCYTE / ABSOLUTE SEGMENTED NEUTROPHIL / BASOPHIL / EOSINOPHIL / ERYTHROCYTE COUNT / HEMATOCRIT / HEMOGLOBIN / LEUKOCYTE COUNT / LYMPHOCYTE / MEAN CORPUSCULAR HEMOGLOBIN / MEAN CORPUSCULAR HEMOGLOBIN CONCENTRATION / MEAN CORPUSCULAR VOLUME / MONOCYTE / NEUTROPHIL / NUCLEATED RED BLOOD CELLS / PLATELET COUNT: tissue Blood; for ALANINE AMINOTRANSFERASE / ALBUMIN / ALKALINE PHOSPHATASE / ASPARTATE AMINOTRANSFERASE / BLOOD UREA NITROGEN / CARBON DIOXIDE / CHLORIDE / CHOLESTEROL / CREATINE PHOSPHOKINASE / CREATININE / GLUCOSE / LACTATE DEHYDROGENASE / LIPASE / PHOSPHORUS / POTASSIUM / SODIUM / TOTAL BILIRUBIN / TOTAL PROTEIN / URIC ACID: tissue Plasma
# [1] = 16 mg/kg, 24 h, dose level Low, time 1 day
# [2] = 25 mg/kg, 6 h, dose level M1, time 0.25 day
# [3] = 25 mg/kg, 24 h, dose level M1, time 1 day
# Description: DrugMatrix - Regimen: Single
smiles,measurement,setting,value
C=CCO [ALLYL ALCOHOL],ABSOLUTE EOSINOPHIL,[1],29.33 CELLS/uL
same,ABSOLUTE LYMPHOCYTE,[1],15204.83 CELLS/uL
same,ABSOLUTE MONOCYTE,[1],174.67 CELLS/uL
same,ABSOLUTE SEGMENTED NEUTROPHIL,[1],841.17 CELLS/uL
same,BASOPHIL,[1],0%
same,EOSINOPHIL,[1],0.17%
same,ERYTHROCYTE COUNT,[1],5.13 x10E6/uL
same,HEMATOCRIT,[1],33.13%
same,HEMOGLOBIN,[1],12.85 G/DL
same,LEUKOCYTE COUNT,[1],16.25 x10E3/uL
same,LYMPHOCYTE,[1],93.83%
same,MEAN CORPUSCULAR HEMOGLOBIN,[1],25.02 pg
same,MEAN CORPUSCULAR HEMOGLOBIN CONCENTRATION,[1],38.82 G/DL
same,MEAN CORPUSCULAR VOLUME,[1],64.5 fL
same,MONOCYTE,[1],1%
same,NEUTROPHIL,[1],5%
same,NUCLEATED RED BLOOD CELLS,[1],0.33 /100WBC
same,PLATELET COUNT,[1],1056.83 x10E3/uL
same,ALANINE AMINOTRANSFERASE,[1],50.67 u/L
same,ALBUMIN,[1],4.33 G/DL
same,ALKALINE PHOSPHATASE,[1],273.5 u/L
same,ASPARTATE AMINOTRANSFERASE,[1],75.83 u/L
same,BLOOD UREA NITROGEN,[1],11.17 mg/dL
same,CARBON DIOXIDE,[1],27.5 mmol/L
same,CHLORIDE,[1],101.83 MEQ/L
same,CHOLESTEROL,[1],67 mg/dL
same,CREATINE PHOSPHOKINASE,[1],299.83 u/L
same,CREATININE,[1],0.18 mg/dL
same,GLUCOSE,[1],166.33 mg/dL
same,LACTATE DEHYDROGENASE,[1],243.17 u/L
same,LIPASE,[1],9.67 u/L
same,PHOSPHORUS,[1],10.5 mg/dL
same,POTASSIUM,[1],5.58 MEQ/L
same,SODIUM,[1],147.05 MEQ/L
same,TOTAL BILIRUBIN,[1],0.15 mg/dL
same,TOTAL PROTEIN,[1],5.87 G/DL
same,URIC ACID,[1],1.25 mg/dL
same,ABSOLUTE EOSINOPHIL,[2],0 CELLS/uL
same,ABSOLUTE LYMPHOCYTE,[2],12514.83 CELLS/uL
same,ABSOLUTE MONOCYTE,[2],196.67 CELLS/uL
same,ABSOLUTE SEGMENTED NEUTROPHIL,[2],2271.83 CELLS/uL
same,BASOPHIL,[2],0%
same,EOSINOPHIL,[2],0%
same,ERYTHROCYTE COUNT,[2],5.42 x10E6/uL
same,HEMATOCRIT,[2],35.1%
same,HEMOGLOBIN,[2],13.58 G/DL
same,LEUKOCYTE COUNT,[2],14.98 x10E3/uL
same,LYMPHOCYTE,[2],83.83%
same,MEAN CORPUSCULAR HEMOGLOBIN,[2],25.07 pg
same,MEAN CORPUSCULAR HEMOGLOBIN CONCENTRATION,[2],38.7 G/DL
same,MEAN CORPUSCULAR VOLUME,[2],64.73 fL
same,MONOCYTE,[2],1.33%
same,NEUTROPHIL,[2],14.83%
same,NUCLEATED RED BLOOD CELLS,[2],0 /100WBC
same,PLATELET COUNT,[2],1079 x10E3/uL
same,ALANINE AMINOTRANSFERASE,[2],87.5 u/L
same,ALBUMIN,[2],4.43 G/DL
same,ALKALINE PHOSPHATASE,[2],238.5 u/L
same,ASPARTATE AMINOTRANSFERASE,[2],133.17 u/L
same,BLOOD UREA NITROGEN,[2],10.33 mg/dL
same,CARBON DIOXIDE,[2],27.67 mmol/L
same,CHLORIDE,[2],101.5 MEQ/L
same,CHOLESTEROL,[2],58.83 mg/dL
same,CREATINE PHOSPHOKINASE,[2],180 u/L
same,CREATININE,[2],0.12 mg/dL
same,GLUCOSE,[2],158.17 mg/dL
same,LACTATE DEHYDROGENASE,[2],175.17 u/L
same,LIPASE,[2],10.67 u/L
same,PHOSPHORUS,[2],11.65 mg/dL
same,POTASSIUM,[2],5.53 MEQ/L
same,SODIUM,[2],144.52 MEQ/L
same,TOTAL BILIRUBIN,[2],0.12 mg/dL
same,TOTAL PROTEIN,[2],5.95 G/DL
same,URIC ACID,[2],1.33 mg/dL
same,ABSOLUTE EOSINOPHIL,[3],41.33 CELLS/uL
same,ABSOLUTE LYMPHOCYTE,[3],12363.17 CELLS/uL
same,ABSOLUTE MONOCYTE,[3],291.83 CELLS/uL
same,ABSOLUTE SEGMENTED NEUTROPHIL,[3],987 CELLS/uL
same,BASOPHIL,[3],0%
same,EOSINOPHIL,[3],0.33%
same,ERYTHROCYTE COUNT,[3],5.25 x10E6/uL
same,HEMATOCRIT,[3],35.35%
same,HEMOGLOBIN,[3],13.55 G/DL
same,LEUKOCYTE COUNT,[3],13.68 x10E3/uL
same,LYMPHOCYTE,[3],90.33%
same,MEAN CORPUSCULAR HEMOGLOBIN,[3],25.85 pg
same,MEAN CORPUSCULAR HEMOGLOBIN CONCENTRATION,[3],38.38 G/DL
same,MEAN CORPUSCULAR VOLUME,[3],67.32 fL
same,MONOCYTE,[3],2.17%
same,NEUTROPHIL,[3],7.17%
same,NUCLEATED RED BLOOD CELLS,[3],0.33 /100WBC
same,PLATELET COUNT,[3],960.33 x10E3/uL
same,ALANINE AMINOTRANSFERASE,[3],143 u/L
same,ALBUMIN,[3],4.27 G/DL
same,ALKALINE PHOSPHATASE,[3],289.67 u/L
same,ASPARTATE AMINOTRANSFERASE,[3],211.17 u/L
same,BLOOD UREA NITROGEN,[3],12.5 mg/dL
same,CARBON DIOXIDE,[3],28.33 mmol/L
same,CHLORIDE,[3],100.67 MEQ/L
same,CHOLESTEROL,[3],75.17 mg/dL
same,CREATINE PHOSPHOKINASE,[3],317.5 u/L
same,CREATININE,[3],0.22 mg/dL
same,GLUCOSE,[3],148.33 mg/dL
same,LACTATE DEHYDROGENASE,[3],194.67 u/L
same,LIPASE,[3],9.33 u/L
same,PHOSPHORUS,[3],11.4 mg/dL
same,POTASSIUM,[3],6.21 MEQ/L
same,SODIUM,[3],147.37 MEQ/L
same,TOTAL BILIRUBIN,[3],0.17 mg/dL
same,TOTAL PROTEIN,[3],5.9 G/DL
same,URIC ACID,[3],1.15 mg/dL
